Experiment: xn = mol fraction of the nth substance listed
Conditions: 101.3 kPa, Liquid; for viscosity: Capillary tube (Ostwald / Ubbelohde) method; for mass density: Pycnometric method; for thermal conductivity: Hot wire method

OCCCOCCCO [4-oxa-1,7-heptanediol] + O
Conditions | mass density [kg/m3] | thermal conductivity [W/m/K] | viscosity [mPa·s]
293.4 K, x1 = 0.5 | 1034 | – | 59.9
293.9 K, x1 = 0.75 | 1028 | – | 88.5
295.05 K, x1 = 0.25 | 1040 | – | 22.3
297.8 K, x1 = 0.25 | – | 0.248 | –
297.9 K, x1 = 0.5 | – | 0.19 | –
298.4 K, x1 = 0.75 | – | 0.167 | –
313.05 K, x1 = 0.25 | 1026 | – | 9.14
313.05 K, x1 = 0.5 | 1019 | – | 18.6
313.05 K, x1 = 0.75 | 1013 | – | 25.8
323.9 K, x1 = 0.25 | – | 0.256 | –
324.8 K, x1 = 0.75 | – | 0.169 | –
324.9 K, x1 = 0.5 | – | 0.193 | –
333.1 K, x1 = 0.25 | 1010 | – | 4.3
333.1 K, x1 = 0.5 | 1003 | – | 7.68
333.1 K, x1 = 0.75 | 997 | – | 9.71
349.3 K, x1 = 0.5 | – | 0.195 | –
349.9 K, x1 = 0.25 | – | 0.26 | –
350.1 K, x1 = 0.75 | – | 0.167 | –
353.1 K, x1 = 0.25 | 992.8 | – | 2.42
353.1 K, x1 = 0.5 | 986 | – | 3.89
353.1 K, x1 = 0.75 | 980.5 | – | 4.71
368.25 K, x1 = 0.25 | 979.2 | – | 1.72
372.2 K, x1 = 0.5 | 969.5 | – | 2.33
372.2 K, x1 = 0.75 | 964.3 | – | 2.73
374 K, x1 = 0.25 | – | 0.264 | –
374.9 K, x1 = 0.5 | – | 0.196 | –
375.1 K, x1 = 0.75 | – | 0.169 | –
378.75 K, x1 = 0.25 | – | – | 1.41
382.5 K, x1 = 0.5 | 960.1 | – | 1.85
382.5 K, x1 = 0.75 | 955.2 | – | 2.14
392.3 K, x1 = 0.75 | 946.2 | – | 1.72
392.4 K, x1 = 0.5 | 951 | – | 1.53
394.25 K, x1 = 0.5 | 949.4 | – | –
395.75 K, x1 = 0.5 | – | – | 1.45
395.95 K, x1 = 0.25 | 953.1 | – | –
397.45 K, x1 = 0.25 | – | – | 0.983
398.6 K, x1 = 0.25 | – | 0.263 | –
398.9 K, x1 = 0.5 | – | 0.195 | –
399 K, x1 = 0.75 | – | 0.169 | –
402.3 K, x1 = 0.75 | 936.9 | – | 1.43
405.35 K, x1 = 0.75 | 934.5 | – | –
406.85 K, x1 = 0.75 | – | – | 1.33
407.85 K, x1 = 0.5 | 936.8 | – | –
408.35 K, x1 = 0.25 | 941.3 | – | –
410.85 K, x1 = 0.5 | – | – | 1.11
411.35 K, x1 = 0.25 | – | – | 0.803
418.35 K, x1 = 0.75 | 923 | – | –
421.35 K, x1 = 0.75 | – | – | 1.05
423.8 K, x1 = 0.25 | – | 0.264 | –
424.3 K, x1 = 0.75 | – | 0.167 | –
424.4 K, x1 = 0.5 | – | 0.193 | –
426.35 K, x1 = 0.5 | 918.8 | – | –
426.75 K, x1 = 0.25 | 922.7 | – | –
429.35 K, x1 = 0.5 | – | – | 0.829
429.75 K, x1 = 0.25 | – | – | 0.63
437.25 K, x1 = 0.75 | 904.2 | – | –
440.25 K, x1 = 0.75 | – | – | 0.795
444.65 K, x1 = 0.25 | 904.1 | – | –
445.25 K, x1 = 0.5 | 899.1 | – | –
447.65 K, x1 = 0.25 | – | – | 0.512
448.25 K, x1 = 0.5 | – | – | 0.64
448.8 K, x1 = 0.5 | – | 0.187 | –
448.9 K, x1 = 0.75 | – | 0.163 | –
455.15 K, x1 = 0.75 | 887.2 | – | –
458.15 K, x1 = 0.75 | – | – | 0.641

Source: the NIST ThermoML archive (doi:10.1021/je049960h)
